Biological target: human APJ receptor (Homo sapiens (Human), UniProt P35414)
Experiment: biochemical
Format: biochemical
Conditions: read-out: Activity hAPJ SPA EC50 IP
In short: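 Agonist-stimulated [35S]GTPγS (0.2 nM) binding was read by SPA after 90 min at room temperature. Buffer: 20 mM HEPES pH 7.5 with 5 mM MgCl2, 200 mM NaCl, 3 μM GDP, 0.1% BSA; membranes were from a stable human APJ CHO line. EC50 values are averages of independent runs, fitted by non-linear regression.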

human APJ receptor, sequence (P35414 whole entry): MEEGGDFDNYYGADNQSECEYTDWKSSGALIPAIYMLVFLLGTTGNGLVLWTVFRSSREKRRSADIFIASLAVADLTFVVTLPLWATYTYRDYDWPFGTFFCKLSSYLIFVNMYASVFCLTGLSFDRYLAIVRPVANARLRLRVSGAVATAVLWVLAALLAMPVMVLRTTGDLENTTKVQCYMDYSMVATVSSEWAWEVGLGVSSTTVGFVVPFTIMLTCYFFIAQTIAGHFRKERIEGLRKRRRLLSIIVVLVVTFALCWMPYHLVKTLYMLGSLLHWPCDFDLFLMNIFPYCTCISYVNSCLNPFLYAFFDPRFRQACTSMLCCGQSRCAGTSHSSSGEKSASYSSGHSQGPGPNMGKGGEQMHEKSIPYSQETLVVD

Structure (SMILES) | EC50 [nM]
COc1cccc(OC)c1-n1c(NS(=O)(=O)[C@@H](C)Cc2ncc(F)cn2)nnc1-c1cnccc1C (single isomer, unassigned) [Example 217.0] | 180
COc1cccc(OC)c1-n1c(NS(=O)(=O)[C@@H](C)Cc2ncc(F)cn2)nnc1-c1cnccc1C (single isomer, unassigned) [Example 218.0] | 300
COc1cccc(OC)c1-n1c(NS(=O)(=O)[C@@H](C)Cc2ncc(F)cn2)nnc1-c1cncc(Cl)c1 (single isomer, unassigned) [Example 220.0] | 7.1
COc1cccc(OC)c1-n1c(NS(=O)(=O)[C@@H](C)Cc2ncc(F)cn2)nnc1-c1cncc(Cl)c1 (single isomer, unassigned) [Example 221.0] | 35
COc1cccc(OC)c1-n1c(NS(=O)(=O)[C@@H](C)[C@H](C)c2ncc(F)cn2)nnc1-c1cncc(C)c1 (single isomer, unassigned) [Example 234.0] | 16
COc1cccc(OC)c1-n1c(NS(=O)(=O)[C@@H](C)[C@H](C)c2ncc(F)cn2)nnc1-c1cncc(C)c1 (single isomer, unassigned) [Example 235.0] | 0.28
COc1cccc(OC)c1-n1c(NS(=O)(=O)[C@@H](C)[C@H](C)c2ncc(F)cn2)nnc1-c1cncc(C)c1 (single isomer, unassigned) [Example 236.0] | 100
COc1cccc(OC)c1-n1c(NS(=O)(=O)[C@@H](C)[C@H](C)c2ncc(F)cn2)nnc1-c1cncc(C)c1 (single isomer, unassigned) [Example 237.0] | 14
COc1cccc(OC)c1-n1c(NS(=O)(=O)[C@@H](C)[C@H](O)c2ccc(C#N)cc2)nnc1-c1cncc(C)c1 (single isomer, unassigned) [Example 248.0] | 60
COc1cccc(-c2nnc(NS(=O)(=O)C[C@H](O)c3ccc(F)cc3S(C)(=O)=O)n2-c2c(OC)cccc2OC)n1 (single isomer, unassigned) [Example 268.0, (R)—N-(4-(2,6-dimethoxyphenyl)-5-(6-methoxypyridin-2-yl)-4H-1,2,4-triazol-3-yl)-2-(4-fluoro-2-(methylsulfonyl)phenyl)-2-hydroxyethanesulfonamide or (S)—N-(4-(2,6-dimethoxyphenyl)-5-(6-methoxypyridin-2-yl)-4H-1,2,4-triazol-3-yl)-2-(4-fluoro-2-(methylsulfonyl)phenyl)-2-hydroxyethanesulfonamide] | 0.17
COc1cccc(-c2nnc(NS(=O)(=O)[C@@H](C)[C@H](O)c3ccc(F)cc3F)n2-c2c(OC)cccc2OC)n1 (single isomer, unassigned) [Example 279.0] | 28
COc1cccc(-c2nnc(NS(=O)(=O)[C@@H](C)[C@H](O)c3ccc(F)cc3F)n2-c2c(OC)cccc2OC)n1 (single isomer, unassigned) [Example 280.0] | 0.27
COc1cccc(-c2nnc(NS(=O)(=O)[C@@H](C)[C@H](O)c3ccc(F)cc3F)n2-c2c(OC)cccc2OC)n1 (single isomer, unassigned) [Example 281.0] | 43
COc1cccc(-c2nnc(NS(=O)(=O)[C@@H](C)[C@H](O)c3ccc(F)cc3F)n2-c2c(OC)cccc2OC)n1 (single isomer, unassigned) [Example 282.0] | 0.71
COc1cccc(-c2nnc(NS(=O)(=O)[C@@H](C)[C@H](O)c3ccc(F)cc3)n2-c2c(OC)cccc2OC)n1 (single isomer, unassigned) [Example 284.0] | 13
COc1cccc(-c2nnc(NS(=O)(=O)[C@@H](C)[C@H](O)c3ccc(F)cc3)n2-c2c(OC)cccc2OC)n1 (single isomer, unassigned) [Example 285.0] | 0.57
COc1cccc(-c2nnc(NS(=O)(=O)[C@@H](C)[C@H](O)c3ccc(F)cc3)n2-c2c(OC)cccc2OC)n1 (single isomer, unassigned) [Example 286.0] | 0.68
COc1cccc(-c2nnc(NS(=O)(=O)[C@@H](C)[C@H](O)c3ccc(F)cc3)n2-c2c(OC)cccc2OC)n1 (single isomer, unassigned) [Example 287.0] | 14

Structure (SMILES) | EC50 [nM]
COc1cccc(-c2nnc(NS(=O)(=O)[C@@H](C)[C@H](O)c3ccc(F)cc3S(C)(=O)=O)n2-c2c(OC)cccc2OC)n1 (single isomer, unassigned) [Example 289.0, (1R,2S)—N-(4-(2,6-dimethoxyphenyl)-5-(6-methoxypyridin-2-yl)-4H-1,2,4-triazol-3-yl)-1-(4-fluoro-2-(methylsulfonyl)phenyl)-1-hydroxypropane-2-sulfonamide or (1S,2R)—N-(4-(2,6-dimethoxyphenyl)-5-(6-methoxypyridin-2-yl)-4H-1,2,4-triazol-3-yl)-1-(4-fluoro-2-(methylsulfonyl)phenyl)-1-hydroxypropane-2-sulfonamide] | 11
COc1cccc(OC)c1-n1c(NS(=O)(=O)[C@@H](C)[C@H](O)c2nc(C)c(C)s2)nnc1-c1cncc(C)c1 (single isomer, unassigned) [Example 291.0] | 1.8
COc1cccc(OC)c1-n1c(NS(=O)(=O)[C@@H](C)[C@H](O)c2nc(C)c(C)s2)nnc1-c1cncc(C)c1 (single isomer, unassigned) [Example 292.0] | 0.9
COc1cccc(OC)c1-n1c(NS(=O)(=O)[C@@H](C)[C@H](O)c2nc(C)c(C)s2)nnc1-c1cncc(C)c1 (single isomer, unassigned) [Example 293.0] | 13
COc1cccc(OC)c1-n1c(NS(=O)(=O)[C@@H](C)[C@H](O)c2nc(C)c(C)s2)nnc1-c1cncc(C)c1 (single isomer, unassigned) [Example 294.0] | 11
COc1cccc(OC)c1-n1c(NS(=O)(=O)[C@@H](C)[C@H](O)c2nc(C)c(C)s2)nnc1-c1cncc(C)c1 (single isomer, unassigned) [Example 295.0] | 98
COc1cccc(OC)c1-n1c(NS(=O)(=O)[C@@H](C)[C@H](O)c2nc(C)c(C)s2)nnc1-c1cncc(C)c1 (single isomer, unassigned) [Example 296.0] | 4.7
COc1cnc([C@@H](O)[C@H](C)S(=O)(=O)Nc2nnc(-c3cncc(C)c3)n2-c2c(OC)cccc2OC)cn1 (single isomer, unassigned) [Example 305.0] | 0.39
COc1cnc([C@@H](O)[C@H](C)S(=O)(=O)Nc2nnc(-c3cncc(C)c3)n2-c2c(OC)cccc2OC)cn1 (single isomer, unassigned) [Example 306.0] | 20
COc1cnc([C@@H](O)[C@H](C)S(=O)(=O)Nc2nnc(-c3cncc(C)c3)n2-c2c(OC)cccc2OC)cn1 (single isomer, unassigned) [Example 308.0] | 76
COc1cnc([C@@H](O)[C@H](C)S(=O)(=O)Nc2nnc(-c3cncc(C)c3)n2-c2c(OC)cccc2OC)cn1 (single isomer, unassigned) [Example 309.0] | 9.5
COc1cnc([C@@H](OC)[C@H](C)S(=O)(=O)Nc2nnc(-c3cncc(C)c3)n2-c2c(OC)cccc2OC)cn1 (single isomer, unassigned) [Example 311.0] | 0.26
COc1cnc([C@@H](OC)[C@H](C)S(=O)(=O)Nc2nnc(-c3cncc(C)c3)n2-c2c(OC)cccc2OC)cn1 (single isomer, unassigned) [Example 312.0] | 27
COc1cccc(-c2nnc(NS(=O)(=O)C[C@H](O)c3ccc(F)cn3)n2-c2c(OC)cccc2OC)n1 (single isomer, unassigned) [Example 316.0, (2R)—N-(4-(2,6-dimethoxyphenyl)-5-(6-methoxy-2-pyridinyl)-4H-1,2,4-triazol-3-yl)-2-(5-fluoro-2-pyridinyl)-2-hydroxyethanesulfonamide or (2S)—N-(4-(2,6-dimethoxyphenyl)-5-(6-methoxy-2-pyridinyl)-4H-1,2,4-triazol-3-yl)-2-(5-fluoro-2-pyridinyl)-2-hydroxyethanesulfonamide] | 0.5
COc1cccc(-c2nnc(NS(=O)(=O)C[C@H](O)c3ccc(F)cn3)n2-c2c(OC)cccc2OC)n1 (single isomer, unassigned) [Example 317.0, (2R)—N-(4-(2,6-dimethoxyphenyl)-5-(6-methoxy-2-pyridinyl)-4H-1,2,4-triazol-3-yl)-2-(5-fluoro-2-pyridinyl)-2-hydroxyethanesulfonamide or (2S)—N-(4-(2,6-dimethoxyphenyl)-5-(6-methoxy-2-pyridinyl)-4H-1,2,4-triazol-3-yl)-2-(5-fluoro-2-pyridinyl)-2-hydroxyethanesulfonamide] | 0.53
COc1cccc(-c2nnc(NS(=O)(=O)C[C@H](OC)c3ccc(F)cn3)n2-c2c(OC)cccc2OC)n1 (single isomer, unassigned) [Example 329.0, (2R)—N-(4-(2,6-dimethoxyphenyl)-5-(6-methoxy-2-pyridinyl)-4H-1,2,4-triazol-3-yl)-2-(5-fluoro-2-pyridinyl)-2-methoxyethanesulfonamide or (2S)—N-(4-(2,6-dimethoxyphenyl)-5-(6-methoxy-2-pyridinyl)-4H-1,2,4-triazol-3-yl)-2-(5-fluoro-2-pyridinyl)-2-methoxyethanesulfonamide] | 0.23
COc1cccc(-c2nnc(NS(=O)(=O)C[C@H](OC)c3ccc(F)cn3)n2-c2c(OC)cccc2OC)n1 (single isomer, unassigned) [Example 330.0, (2R)—N-(4-(2,6-dimethoxyphenyl)-5-(6-methoxy-2-pyridinyl)-4H-1,2,4-triazol-3-yl)-2-(5-fluoro-2-pyridinyl)-2-methoxyethanesulfonamide or (2S)—N-(4-(2,6-dimethoxyphenyl)-5-(6-methoxy-2-pyridinyl)-4H-1,2,4-triazol-3-yl)-2-(5-fluoro-2-pyridinyl)-2-methoxyethanesulfonamide] | 0.3

— patent publication US10058550B2, “Methods of treating heart failure” (priority 2015, dated 2018)
